# Reference: patent US7138361B2, “Herbicidal heterocycles” (E. I. du Pont de Nemours and Company, priority 2000, dated 2006)
# Assays:
# Format in all cases: in vivo
# [1] = test system: woolly cupgrass (Eriochloa villosa); experiment: Test C postemergence
# Outline: (§1)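 Preemergence: seeds sown then treated. Postemergence: plants 2–18 cm, 1- to 4-leaf. Both with surfactant-containing solvent formulation; visual injury scored 0–100 after 12–14 d.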
# [2] = test system: yellow nutsedge (Cyperus esculentus); experiment: Test C postemergence
# Outline: as §1
# corn (Zea mays) [3] = experiment: Test C postemergence
# Outline: as §1
# [4] = test system: pigweed (Amaranthus retroflexus); experiment: Test C postemergence
# Outline: as §1
# [5] = test system: morningglory (Ipomoea hederacea); experiment: Test C postemergence
# Outline: as §1
# [6] = test system: crabgrass (Digitaria sanguinalis); experiment: Test C postemergence
# Outline: as §1
# [7] = test system: bermudagrass (Cynodon dactylon); experiment: Test C postemergence
# Outline: as §1
# [8] = test system: goosegrass (Eleusine indica); experiment: Test C postemergence
# Outline: as §1
# [9] = test system: velvetleaf (Abutilon theophrasti); experiment: Test C postemergence
# Outline: as §1
# soybean (Glycine max) = experiment: Test C postemergence
# Outline: as §1
# kochia (Kochia scoparia) = experiment: Test C postemergence
# Outline: as §1
# [10] = test system: giant foxtail (Setaria faberii); experiment: Test C postemergence; conditions: Rate 250 g/ha, scale 0 to 100 (0 no effect, 100 complete control)
# Outline: as §1
# [11] = test system: lambsquarters (Chenopodium album); experiment: Test C postemergence
# Outline: as §1
# corn (Zea mays) [12] = experiment: Test B preemergence
# Outline: (§2)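 Ratings on a 0 to 100 visual scale (100 complete control) compare treated plants with controls 13 to 15 days after application. Treatments were pre- or postemergence sprays of compound in non-phytotoxic solvent with surfactant.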
# [13] = test system: pigweed (Amaranthus retroflexus); experiment: Test B preemergence
# Outline: as §2
# [14] = test system: Surinam grass (Brachiaria decumbens); experiment: Test B preemergence
# Outline: as §2
# [15] = test system: crabgrass (Digitaria sanguinalis); experiment: Test B preemergence
# Outline: as §2
# rice (Oryza saliva) = experiment: Test B preemergence
# Outline: as §2
# [16] = test system: velvetleaf (Abutilon theophrasti); experiment: Test B preemergence
# Outline: as §2
# [17] = test system: giant foxtail (Setaria faberii); experiment: Test B preemergence
# Outline: as §2
# [18] = test system: lambsquarters (Chenopodium album); experiment: Test B preemergence
# Outline: as §2
# [19] = test system: morning glory (Ipomoea hederacea); experiment: Test B preemergence
# Outline: as §2
# [20] = test system: cocklebur (Xanthium strumarium); experiment: Test B preemergence
# Outline: as §2
# [21] = Rate 250 g/ha, scale 0 to 100 (0 no effect, 100 complete control)
# [22] = Rate 500 g/ha, scale 0 to 100 (0 no effect, 100 complete control)
# [23] = Preemergence, Rate 500 g/ha, scale 0 to 100, 0 no effect, 100 complete control
# [24] = preemergence, Rate 125 g/ha, scale of 0 to 100 where 0 is no effect and 100 is complete control, 13 to 15 days
structure (smiles),measurement,setting,value
COc1cc(N2CCC(n3ccc(C(C)(C)C)n3)C2=O)ccc1Br (stereo not shown) [Compound 141],"Plant response rating, Cupgrass, Woolly","[1]; Rate 62 g/ha, scale 0 to 100",30
same,"Plant response rating, Cupgrass, Woolly",[1]; [21],50
same,"Plant response rating, Cupgrass, Woolly",[1]; [22],70
same,"Plant response rating, Nutsedge","[2]; Rate 62 g/ha, scale 0 to 100",0
same,"Plant response rating, Nutsedge",[2]; [21],0
same,"Plant response rating, Nutsedge",[2]; [22],0
same,"Plant response rating, Corn","corn (Zea mays) [3]; Rate 62 g/ha, scale 0 to 100",0
same,"Plant response rating, Corn",corn (Zea mays) [3]; [21],0
same,"Plant response rating, Corn",corn (Zea mays) [3]; [22],0
same,"Plant response rating, Corn",corn (Zea mays) [3]; scale 0 to 100,0
same,"Plant response rating, Pigweed","[4]; Rate 62 g/ha, scale 0 to 100",70
same,"Plant response rating, Pigweed",[4]; [21],70
same,"Plant response rating, Pigweed",[4]; [22],100
same,"Plant response rating, Morningglory","[5]; Rate 62 g/ha, scale 0 to 100",70
same,"Plant response rating, Morningglory",[5]; [22],100
same,"Plant response rating, Crabgrass","[6]; Rate 62 g/ha, scale 0 to 100",60
same,"Plant response rating, Crabgrass",[6]; [21],60
same,"Plant response rating, Crabgrass",[6]; [22],70
same,"Plant response rating, Bermudagrass","[7]; Rate 62 g/ha, scale 0 to 100",40
same,"Plant response rating, Bermudagrass","[7]; Rate 125 g/ha, scale 0 to 100, 0 no effect, 100 complete control",60
same,"Plant response rating, Bermudagrass",[7]; [21],60
same,"Plant response rating, Bermudagrass",[7]; [22],100
same,"Plant response rating, Goosegrass","[8]; Rate 62 g/ha, scale 0 to 100",20
same,"Plant response rating, Goosegrass",[8]; [21],50
same,"Plant response rating, Goosegrass",[8]; [22],70
same,"Plant response rating, Velvetleaf","[9]; Rate 62 g/ha, scale 0 to 100",50
same,"Plant response rating, Velvetleaf",[9]; [21],50
same,"Plant response rating, Velvetleaf",[9]; [22],80
same,"Plant response rating, Velvetleaf",[9]; scale 0 to 100,50
same,"Plant response rating, Soybean","soybean (Glycine max); Rate 62 g/ha, scale 0 to 100",90
same,"Plant response rating, Soybean",soybean (Glycine max); [21],100
same,"Plant response rating, Soybean",soybean (Glycine max); [22],100
same,"Plant response rating, Kochia","kochia (Kochia scoparia); Rate 62 g/ha, scale 0 to 100",10
same,"Plant response rating, Kochia",kochia (Kochia scoparia); [21],80
same,"Plant response rating, Kochia",kochia (Kochia scoparia); [22],90
same,"Plant response rating, Foxtail, Giant",[10],80
same,"Plant response rating, Lambsquarters","[11]; Rate 62 g/ha, scale 0 to 100",70
same,"Plant response rating, Lambsquarters",[11]; [22],100
same,"Plant response rating, Corn",corn (Zea mays) [12]; [23],20
same,"Plant response rating, Corn",corn (Zea mays) [12]; [24],0
same,"Plant response rating, Pigweed",[13]; [23],100
same,"Plant response rating, Pigweed",[13]; [24],100
same,"Plant response rating, Surinam grass",[14]; [23],100
same,"Plant response rating, Surinam grass",[14]; [24],100
same,"Plant response rating, Crabgrass",[15]; [23],100
same,"Plant response rating, Crabgrass",[15]; [24],100
same,"Plant response rating, Rice",rice (Oryza saliva); [23],50
same,"Plant response rating, Rice",rice (Oryza saliva); [24],30
same,"Plant response rating, Velvetleaf",[16]; [23],100
same,"Plant response rating, Velvetleaf",[16]; [24],70
same,"Plant response rating, Foxtail, Giant",[17]; [23],100
same,"Plant response rating, Foxtail, Giant",[17]; [24],100
same,"Plant response rating, Lambsquarters",[18]; [23],100
same,"Plant response rating, Lambsquarters",[18]; [24],100
same,"Plant response rating, Morningglory",[19]; [23],100
same,"Plant response rating, Morningglory",[19]; [24],90
same,"Plant response rating, Cocklebur",[20]; [23],100
same,"Plant response rating, Cocklebur",[20]; [24],70
